target: T1, 5-HT2B Receptors (Homo sapiens, UniProt P41595); assay: Antagonist activity assay (FLIPR, CHO-K1/5-HT2B stable cell line); assay type: cell-based; conditions: 1 μM compound, CHO-K1/5-HT2B cells stimulated with 12 nM (EC80) 5-HT
T1 construct: expressed in transfected cells
Description: Briefly, CHO-K1 cells expressing 5-HT2B were seeded in a 384-well black-wall, clear-bottom plate at a density of 20,000 cells per well in 20 μL of growth medium (10% dialyzed FBS+90% F12), 18 hours prior to the day of experiment and maintained at 37° C./5% CO2. 20 μL of dye-loading solution and 10 μL of tested compound solution (at concentrations five times to the final assay concentrations) were added into the well. Then the plate was placed into a 37° C. incubator for 60 minutes, followed by 15 minutes at room temperature. At last, 12.5 μL of control agonist (at concentrations five times to the EC80 concentrations) was added. The control agonist was added to reading plate at 20 s and the fluorescence signal was monitored for an additional 100 s (21 s to 120 s). In screening, cells stimulated with assay buffer (HBSS-HEPES) containing 0.1% DMSO were chosen as background; cell stimulated with 12 nM (EC80 of the cell line) of 5-HT were chosen as the agonist control; cell treated with SB206553 were chosen as positive control of the screening.
Data acquisition and analyses are performed using ScreenWorks (version 3.1) program. The average fluorescent intensity value during 1 s to 20 s calculated as the baseline reading. The relative fluorescent units (ΔRFU) intensity values were calculated with the maximal fluorescent units (21 s to 120 s) subtracting the average value of baseline reading. The % inhibition of the test article is calculated from the following equation: % inhibition=[1−(ΔRFUCompound−ΔRFUBackground)/(ΔRFUAgonist control−ΔRFUBackground)]*100

T1 sequence (P41595 whole entry): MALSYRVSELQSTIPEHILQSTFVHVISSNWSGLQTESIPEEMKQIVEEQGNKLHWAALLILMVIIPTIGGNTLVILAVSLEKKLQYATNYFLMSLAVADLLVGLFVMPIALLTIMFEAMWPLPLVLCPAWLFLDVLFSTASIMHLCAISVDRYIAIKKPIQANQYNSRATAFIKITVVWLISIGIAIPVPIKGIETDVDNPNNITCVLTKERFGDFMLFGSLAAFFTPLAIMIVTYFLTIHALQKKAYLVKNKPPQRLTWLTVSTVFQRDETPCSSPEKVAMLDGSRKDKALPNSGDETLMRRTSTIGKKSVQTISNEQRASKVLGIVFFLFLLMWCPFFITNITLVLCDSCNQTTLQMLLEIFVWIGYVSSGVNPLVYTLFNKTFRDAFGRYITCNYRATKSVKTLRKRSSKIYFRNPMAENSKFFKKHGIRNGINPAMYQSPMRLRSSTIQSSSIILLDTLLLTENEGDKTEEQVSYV

Structure (SMILES)	inhibition at 1 µM [%]
CCOC(=O)c1cccc(NC2=NC(N)=NC3(CCCCC3)N2)c1 [3-i]	107.2 ± 0.6
CCOC(=O)c1cccc(NC2=NC(N(C)C)=NC3(CCCCC3)N2)c1 [3-y]	91.8 ± 0.4
COc1cccc(NC2=NC(N)=NC3(CCCC3)N2)c1 [2-a]	63.4 ± 15.1
NC1=NC2(CCCCC2)NC(Nc2cccc(Br)c2)=N1 [3-e2]	97.4 ± 2.2
CC1(C)N=C(N)N=C(Nc2ccc(Br)cc2)N1 [1-e]	< 50
CC1(C)N=C(N)N=C(Nc2ccc(Cl)cc2)N1 [1-d]	93.1 ± 4.2
Cc1ccc(C)c(NC2=NC(N)=NC3(CCCC3)N2)c1 [2-c]	< 50
COc1ccccc1NC1=NC(N)=NC2(CCCC2)N1 [1-h]	< 50
CCOc1ccc(NC2=NC(N)=NC(C)(C)N2)cc1 [1-g]	< 50
CC1(C)N=C(N)N=C(Nc2ccc(I)cc2)N1 [1-f]	< 50
COc1ccccc1NC1=NC(N)=NC(C)(C)N1 [1-b]	< 50
Cc1cccc(NC2=NC(N)=NC3(CCCC3)N2)c1 [1-i]	< 50
Cc1cccc(C)c1NC1=NC(N)=NC2(CCCC2)N1 [2-d]	< 50
NC1=NC2(CCCCC2)NC(Nc2ccc(Cl)cc2)=N1 [3-n]	57.2 ± 5.4
NC1=NC2(CCCC2)NC(Nc2ccc(F)cc2)=N1 [2-b]	< 50
CC1(C)N=C(N)N=C(Nc2ccccc2)N1 [1-a]	< 50
CC1(C)N=C(N)N=C(Nc2cccc(Br)c2)N1 [1-c]	75.9 ± 11.5

Now from value to compound:

inhibition at 1 µM [%]	Structure (SMILES)
< 50	COc1ccccc1NC1=NC(N)=NC2(CCCCC2)N1 [3-c]
< 50	CCN(CC)C(=O)c1cccc(NC2=NC(N)=NC3(CCCCC3)N2)c1 [3-l]
84.6 ± 1.2	COc1cccc(NC2=NC(N)=NC3(CCCCC3)N2)c1 [3-g]
69.1 ± 2.7	Cc1cc(C)cc(NC2=NC(N)=NC3(CCCCC3)N2)c1 [3-t]
~95.5	NC1=NC2(CCCCC2)NC(Nc2cccc(Cl)c2)=N1 [3-e1]
< 50	Cc1ccccc1NC1=NC(N)=NC2(CCCCC2)N1 [3-b]
90.9 ± 2.9	NC1=NC2(CCCCC2)NC(Nc2cccc(F)c2)=N1 [3-d]
95.5 ± 4.8	CCNC(=O)c1cccc(NC2=NC(N)=NC3(CCCCC3)N2)c1 [3-j, 3-(4-amino-1,3,5-triazaspiro[5.5]undeca-2,4-dien-2-ylamino)-N-ethylbenzamide]
< 50	CN(C)c1ccc(NC2=NC(N)=NC3(CCCCC3)N2)cc1 [3-o]
81.1 ± 6.7	COc1ccc(OC)c(NC2=NC(N)=NC3(CCCCC3)N2)c1 [3-u]
< 50	NC1=NC2(CCCCC2)NC(Nc2ccc(F)cc2F)=N1 [3-q]
92.8 ± 3.1	CCOC(=O)c1cc(NC2=NC(N)=NC3(CCCCC3)N2)cc(Br)c1C [3-w]
108 ± 1.5	CCOC(=O)c1cc(NC2=NC(N)=NC3(CCCCC3)N2)ccc1C [3-v]
66.5 ± 2.1	NC1=NC2(CCCCC2)NC(Nc2ccc(F)c(F)c2)=N1 [3-r]
106 ± 0.8	CCCC(=O)c1cccc(NC2=NC(N)=NC3(CCCCC3)N2)c1 [3-z]
< 50	NC1=NC2(CCCCC2)NC(Nc2ccccc2)=N1 [3-a]
50.2 ± 8	Cc1ccc(NC2=NC(N)=NC3(CCCCC3)N2)cc1 [3-m]
108	CCOC(=O)c1cccc(NC2=NC(NC)=NC3(CCCCC3)N2)c1 [3-x, ethyl 3-(4-(methylamino)-1,3,5-triazaspiro[5.5]undeca-2,4-dien-2-ylamino)benzoate]
109 ± 4.2	CCOC(=O)c1ccc(NC2=NC(N)=NC3(CCCCC3)N2)cc1 [3-p]
110 ± 2.7	CCCOC(=O)c1cccc(NC2=NC(N)=NC3(CCCCC3)N2)c1 [3-k]
102 ± 4.5	NC1=NC2(CCCCC2)NC(Nc2cccc(I)c2)=N1 [3-f]
95.7 ± 1.9	Cc1ccc(NC2=NC(N)=NC3(CCCCC3)N2)cc1C [3-s]
< 50	NC1=NC2(CCCCC2)NC(Nc2cccc(C(=O)O)c2)=N1 [3-h]

same assay, conditions: CHO-K1/5-HT2B cells, antagonist mode vs EC80 5-HT

Structure (SMILES)	IC50 [nM]
CCOC(=O)c1cccc(NC2=NC(N)=NC3(CCCCC3)N2)c1 [3-i]	27.3
CCOC(=O)c1cccc(NC2=NC(N(C)C)=NC3(CCCCC3)N2)c1 [3-y]	284
COc1cccc(NC2=NC(N)=NC3(CCCC3)N2)c1 [2-a]	1060
NC1=NC2(CCCCC2)NC(Nc2cccc(Br)c2)=N1 [3-e2]	33.4
CC1(C)N=C(N)N=C(Nc2ccc(Cl)cc2)N1 [1-d]	1640
CC1(C)N=C(N)N=C(Nc2ccc(I)cc2)N1 [1-f]	2510
NC1=NC2(CCCCC2)NC(Nc2ccc(Cl)cc2)=N1 [3-n]	531
CC1(C)N=C(N)N=C(Nc2cccc(Br)c2)N1 [1-c]	328

The next lines start with the values.

IC50 [nM]	Structure (SMILES)
280	COc1cccc(NC2=NC(N)=NC3(CCCCC3)N2)c1 [3-g]
476	Cc1cc(C)cc(NC2=NC(N)=NC3(CCCCC3)N2)c1 [3-t]
104	CCNC(=O)c1cccc(NC2=NC(N)=NC3(CCCCC3)N2)c1 [3-j, 3-(4-amino-1,3,5-triazaspiro[5.5]undeca-2,4-dien-2-ylamino)-N-ethylbenzamide]
622	COc1ccc(OC)c(NC2=NC(N)=NC3(CCCCC3)N2)c1 [3-u]
35.8	CCCC(=O)c1cccc(NC2=NC(N)=NC3(CCCCC3)N2)c1 [3-z]
486	Cc1ccc(NC2=NC(N)=NC3(CCCCC3)N2)cc1 [3-m]
49.4	CCOC(=O)c1cccc(NC2=NC(NC)=NC3(CCCCC3)N2)c1 [3-x, ethyl 3-(4-(methylamino)-1,3,5-triazaspiro[5.5]undeca-2,4-dien-2-ylamino)benzoate]
18.1	CCCOC(=O)c1cccc(NC2=NC(N)=NC3(CCCCC3)N2)c1 [3-k]
177	Cc1ccc(NC2=NC(N)=NC3(CCCCC3)N2)cc1C [3-s]

Source: US9751845B2, “5-HT2B antagonists” (National Institute of Biological Sciences, Beijing, priority 2014, dated 2017)
